{"source": "patent US4025629A", "about": "“P-(trifluoromethylquinolylamino)benzamides, pharmaceutical dosage forms and method of treatment” (The Upjohn Company, priority 1975, dated 1977)", "key": {"[1]": {"system": "Schistosoma Mansoni cercariae", "conditions": "160 mg./kg. subcutaneously; cited from earlier work"}, "Plasmodium berghei": {"system": "Plasmodium berghei", "conditions": "mice; 160 mg./kg. subcutaneously; cited from earlier work"}, "[2]": {"system": "male mice (motor activity)", "test": "Inhibition of motor activity of mice on drug-containing diet (actophotometers)", "assay_type": "in vivo, mouse", "conditions": "after 20 hours on diet", "procedure": "The essential active ingredient is suspended in a normal mouse diet to provide a concentration in the diet of from about 0.03 to about 0.3%. Groups of male mice, 18-22 gm. each, are fed a stock diet containing various concentrations of the essential active ingredient. Motor activity is determined after 20 hours on the diet, four groups of two mice from each test group being placed in actophotometers. After a ten minute acclimation period, motor activity is recorded for a ten minute period with the following results: […]"}, "[3]": {"system": "unanesthetized normotensive rats", "test": "Hypotensive effect (mean arterial pressure) in unanesthetized normotensive rats, oral aqueous suspension", "assay_type": "in vivo, rat", "conditions": "for B.P. Change: individual rats", "procedure": "An aqueous suspension for oral administration is prepared by suspending the essential active ingredient at a concentration of 10 mg./ml. in an aqueous solution containing 1% of sodium carboxymethylcellulose. This suspension is used for bringing about hypotensive effects in unanesthetized normotensive rats. The rats are prepared for measuring blood pressure directly from the aorta through a chronic indwelling cannula (Weeks and Jones, Proc. Soc. Exptl. Biol. and Med., 104, 646, 1960). Mean arterial pressure is measured prior to and at four hours and 24 hours after drug administration at a specified dose."}}, "note": "Where “and” joins values, the source holds several entries; their conditions need not be identical. Equal values may be shown once."}
{"smiles": "CN1CCN(C(=O)c2ccc(Nc3ccnc4cc(Cl)ccc34)cc2)CC1", "note": "[1-[p-[(7-chloro-4-quinolyl)amino]-N,N-(3-methyl-3-azapentamethylene]benzamide]", "values": [{"measurement": "activity against Schistosoma Mansoni cercariae in mice", "setting": "[1]", "value": "Slight activity"}, {"measurement": "activity against Plasmodium berghei", "setting": "Plasmodium berghei", "value": "Slight activity"}]}
{"smiles": "CN1CCN(C(=O)c2ccc(Nc3ccnc4cc(C(F)(F)F)ccc34)cc2)CC1", "note": "[essential active ingredient, p-[(7-trifluoromethyl-4-quinolyl)amino]-N,N-(3-methyl-3-azapentamethylene)benzamide]", "values": [{"measurement": "% Inhibition Motor Activity", "setting": "[2]; 0.1% conc. in diet, 24 hour drug intake 95 mg./kg.", "value": 96, "unit": "%"}, {"measurement": "% Inhibition Motor Activity", "setting": "[2]; 0.3% conc. in diet (third line), 24 hour drug intake 47 mg./kg.", "value": 68, "unit": "%"}, {"measurement": "% Inhibition Motor Activity", "setting": "[2]; 0.3% conc. in diet, 24 hour drug intake 94 mg./kg.", "value": 92, "unit": "%"}, {"measurement": "B.P. Change", "setting": "[3]; oral 1 mg./kg., 4 hr.", "value": 0, "unit": "mm Hg"}, {"measurement": "B.P. Change", "setting": "[3]; oral 1 mg./kg., 24 hr.", "value": "-10 mm Hg and 0 mm Hg"}, {"measurement": "B.P. Change", "setting": "[3]; oral 3.12 mg./kg., 4 hr.", "value": "-18 mm Hg and +12 mm Hg and 0 mm Hg"}, {"measurement": "B.P. Change", "setting": "[3]; oral 3.12 mg./kg., 24 hr.", "value": "-18 mm Hg and -10 mm Hg"}, {"measurement": "B.P. Change, avg", "setting": "[3]; oral 6.35 mg./kg., 4 hr., average of 4 rats (initial avg 138)", "value": -13, "unit": "mm Hg"}, {"measurement": "B.P. Change", "setting": "[3]; oral 6.35 mg./kg., 4 hr.", "value": "-14 mm Hg and -16 mm Hg"}, {"measurement": "B.P. Change, avg", "setting": "[3]; oral 6.35 mg./kg., 24 hr., average of 4 rats (initial avg 138)", "value": -12, "unit": "mm Hg"}, {"measurement": "B.P. Change", "setting": "[3]; oral 6.35 mg./kg., 24 hr.", "value": "-10 mm Hg and -14 mm Hg"}, {"measurement": "B.P. Change, avg", "setting": "[3]; oral 12.5 mg./kg., 24 hr., average of 4 rats (initial avg 132)", "value": -17, "unit": "mm Hg"}, {"measurement": "B.P. Change", "setting": "[3]; oral 12.5 mg./kg., 24 hr.", "value": "-24 mm Hg and -12 mm Hg"}, {"measurement": "B.P. Change, avg", "setting": "[3]; oral 25 mg./kg., 4 hr., average of 4 rats (initial avg 138)", "value": -18, "unit": "mm Hg"}, {"measurement": "B.P. Change", "setting": "[3]; oral 25 mg./kg., 4 hr.", "value": "-22 mm Hg and -30 mm Hg and -12 mm Hg"}, {"measurement": "B.P. Change, avg", "setting": "[3]; oral 25 mg./kg., 24 hr., average of 4 rats (initial avg 138)", "value": -23, "unit": "mm Hg"}, {"measurement": "B.P. Change", "setting": "[3]; oral 25 mg./kg., 24 hr.", "value": "-22 mm Hg and -28 mm Hg and -20 mm Hg"}, {"measurement": "B.P. Change, avg", "setting": "[3]; oral 50 mg./kg., 4 hr., average of 4 rats (initial avg 133)", "value": -13, "unit": "mm Hg"}, {"measurement": "B.P. Change", "setting": "[3]; oral 50 mg./kg., 4 hr.", "value": "-16 mm Hg and -22 mm Hg"}, {"measurement": "B.P. Change, avg", "setting": "[3]; oral 50 mg./kg., 24 hr., average of 4 rats (initial avg 133)", "value": -17, "unit": "mm Hg"}, {"measurement": "B.P. Change", "setting": "[3]; oral 50 mg./kg., 24 hr.", "value": "-22 mm Hg and -28 mm Hg and 0 mm Hg"}]}
{"smiles": "CN1CCN(C(=O)c2cccc(Nc3ccnc4cc(Cl)ccc34)c2)CC1", "note": "[its meta isomer]", "values": [{"measurement": "activity against Schistosoma Mansoni cercariae in mice", "setting": "[1]", "value": "Slight activity"}, {"measurement": "activity against Plasmodium berghei", "setting": "Plasmodium berghei", "value": "Slight activity"}]}
